Measured values from PMC5608804, “Stepwise Evolution Improves Identification of Diverse Peptides Binding to a Protein Target” (Scientific Reports, 2017).

Each substance was assayed against T1, streptavidin (Streptomyces avidinii, UniProt P22629) (assay: Cy5-streptavidin binding on HotSpot discovery array, 5-mer L-peptide library). Conditions: 5-mer L-peptide library array, Cy5-streptavidin; from average of three arrays.
T1 construct: purchased GE Healthcare (Little Chalfont, UK)
Procedure, shortened: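 Array of 2,476,099 5-mer peptides (19 amino acids, no cysteine) with Gly-Ser linkers, probed overnight at 4 °C with 0.5 µg/ml Cy5-streptavidin in Tris pH 7.4 buffer containing casein or BSA plus Tween-20. Cy5 fluorescence read at 635 nm; peptides selected by signal-to-background >4 across three arrays.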

T1 sequence (P22629 25-183): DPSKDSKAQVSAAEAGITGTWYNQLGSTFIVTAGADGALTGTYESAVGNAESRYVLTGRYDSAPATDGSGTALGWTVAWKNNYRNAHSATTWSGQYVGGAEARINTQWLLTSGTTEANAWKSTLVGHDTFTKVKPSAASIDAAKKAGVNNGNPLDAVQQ

Row | Substance | S/B (signal to background ratio)
1 | STHPM | 48.2
2 | WHPQT | 54.9
3 | SHPQA | 137.0
4 | RHPQW | 20.3
5 | HNHPQ | 146.9
6 | EPHPM | 23.1
7 | HPQNE | 48.0
8 | SWHPQ | 171.5
9 | HPMFN | 39.1
10 | QQHPQ | 136.6
11 | DDHPQ | 31.9
12 | PHPQA | 128.7
13 | SHPQN | 135.7
14 | FYHPQ | 202.7
15 | HPQFL | 42.4
16 | ENHPM | 23.5
17 | RHHPQ | 148.9
18 | DFHPM | 36.4
19 | YHHPQ | 183.0
20 | AMHPM | 42.8
21 | FHHPQ | 219.2
22 | ILHPQ | 121.2
23 | HPMFG | 21.9

Row | Substance | S/B (signal to background ratio)
24 | GAHPQ | 136.7
25 | YHPMM | 31.1
26 | EHPQS | 36.4
27 | FHPQG | 146.3
28 | RQHPM | 55.1
29 | VHHPQ | 141.1
30 | PRHPQ | 161.5
31 | PHPMV | 24.7
32 | LAEYH [L-amino acid 5-mer array peptide] | 45.0
33 | FHPQT | 34.8
34 | THPQY | 30.1
35 | RKHPQ | 46.9
36 | WSHPQ | 215.6
37 | SHPQM | 37.7
38 | PHPQN | 138.6
39 | HPQGK | 29.8
40 | HPMGQ | 20.5
41 | YVHPQ | 145.8
42 | YQHPQ | 172.3
43 | RHPQD | 36.1
44 | EHPQF | 53.2
45 | RHPQY | 41.5
46 | EHPQY | 22.3

Row | Substance | S/B (signal to background ratio)
47 | TPHPQ | 142.6
48 | GGHPQ | 124.2
49 | HPMSG | 45.4
50 | RQHPQ | 139.3
51 | RHHPM | 53.8
52 | LVHPQ | 129.9
53 | HPQND | 53.5
54 | THPQN | 136.1
55 | QQHPM | 43.3
56 | EHPQR | 45.0
57 | MLHPQ | 136.4
58 | FIHPQ | 152.7
59 | PFHPQ | 193.0
60 | VHPQA | 131.8
61 | SFHPQ | 121.6
62 | WWHPM | 52.3
63 | AFHPQ | 177.5
64 | HPQVH | 57.8
65 | VWHPQ | 171.7
66 | HPQVQ | 49.2
67 | YIHPQ | 131.4
68 | LAVYH [L-amino acid 5-mer array peptide] | 27.0

Same assay, conditions: 5-mer L-peptide library array, Cy5-streptavidin; from the average of three arrays

Row | Substance | S/B (signal to background ratio)
69 | HPQGH | 86.0
70 | HPQNW | 93.4
71 | MDHPQ | 88.9
72 | WHPQM | 100.1
73 | HPQVS | 77.3
74 | AHPQS | 79.9
75 | MWHPM | 86.7
76 | IHPQG | 85.9
77 | LKHPQ | 83.5
78 | HIHPQ | 104.7
79 | QHPQF | 117.5
80 | THPMA | 67.4
81 | HPQNY | 103.6
82 | RHPMA | 68.6
83 | IDHPQ | 88.2
84 | HPQVA | 67.2
85 | VHPQS | 73.9
86 | NHPQS | 70.7

Row | Substance | S/B (signal to background ratio)
87 | DSHPQ | 74.0
88 | QEHPQ | 63.4
89 | LWHPM | 64.6
90 | THHPM | 58.0
91 | YDHPQ | 116.2
92 | PVHPQ | 99.3
93 | FHHPM | 95.4
94 | SRHPM | 57.8
95 | LPHPM | 58.1
96 | HPQNQ | 86.9
97 | FFHPM | 89.2
98 | FAHPM | 90.2
99 | FMHPM | 101.3
100 | HEHPQ | 76.5
101 | VWHPM | 71.2
102 | QLHPQ | 117.5
103 | QFHPM | 77.7

Same assay, conditions: 5-mer L-peptide library, from the average of three arrays

Row | Substance | S/B (signal to background ratio)
104 | NWEAI [L-amino acid 5-mer array peptide] | 4.1
105 | GHPPQ | 5.2
106 | FFMIM [L-amino acid 5-mer array peptide] | 5.1
107 | HPQKF | 4.8
108 | HPQPQ | 4.4
109 | FMFMF [L-amino acid 5-mer array peptide] | 4.2
110 | GLGYH [L-amino acid 5-mer array peptide] | 4.6
111 | HPMHM | 4.4
112 | WHVPQ | 4.3
113 | THPMK | 4.1
114 | HPRQF | 4.3
115 | YHPMI | 4.8
116 | YHFPQ | 4.9
117 | WRHPH | 4.2
118 | HPMSY | 4.8
119 | NWDQV [L-amino acid 5-mer array peptide] | 4.6

Same assay, conditions: average of three arrays, L-peptide 5-mer library

Row | Substance | S/B (signal to background ratio)
120 | NWEAI [L-amino acid 5-mer array peptide] | 4.1
121 | FDAWL [L-amino acid 5-mer array peptide] | 11.9
122 | FFMIM [L-amino acid 5-mer array peptide] | 5.1
123 | FMFMF [L-amino acid 5-mer array peptide] | 4.2
124 | LAEYH [L-amino acid 5-mer array peptide] | 45.0
125 | GLGYH [L-amino acid 5-mer array peptide] | 4.6
126 | MALHF [L-amino acid 5-mer array peptide] | 8.0
127 | MAKHF [L-amino acid 5-mer array peptide] | 5.4
128 | LAVYH [L-amino acid 5-mer array peptide] | 27.0
129 | NWDQV [L-amino acid 5-mer array peptide] | 4.6

Same assay, conditions: signal to background ratio; 5-mer L-peptide library array, Cy5-streptavidin

Row | Substance | S/B
130 | FDAWL [L-amino acid 5-mer array peptide] | 11.9
131 | LHPQW | 12.4
132 | HPMQG | 16.2
133 | MHPMM | 9.8
134 | KHPMS | 8.8
135 | HPMGK | 5.3
136 | THPMR | 8.7
137 | HPMYR | 5.9
138 | HPMYA | 11.4
139 | WHPQL | 14.5
140 | WHPMT | 16.9
141 | HPMHP | 14.9
142 | HPMGL | 9.0
143 | KHPQT | 7.6
144 | VHPMN | 13.1
145 | MHPQK | 9.8
146 | RHPMY | 14.4

Row | Substance | S/B
147 | QHPQI | 14.9
148 | QHPMI | 6.4
149 | HPADF | 6.3
150 | HPMYQ | 5.7
151 | GHPQK | 13.3
152 | RHPQP | 7.4
153 | MALHF [L-amino acid 5-mer array peptide] | 8.0
154 | HPMAM | 6.5
155 | HPQQW | 16.8
156 | SHPMY | 11.0
157 | HPQSH | 12.3
158 | MAKHF [L-amino acid 5-mer array peptide] | 5.4
159 | RHPMI | 8.0
160 | HPQYD | 8.0
161 | HPQAV | 17.8
162 | HPQKY | 5.5
